Data on three compounds can be found in patent US4157391A, “Cholesterol derivative-based medicaments acting on bio-protective mechanisms” (The Green Cross Corporation, priority 1977, dated 1979).

One data set has as its system PHA reaction. The data set is described as follows: PHA reaction 50% inhibition (PHA method by Cooperband et al.), immunoregulatory action in vitro. It is filed as cell-based. As to conditions: read-out: PHA reaction 50% inhibition concentration. An excerpt: The PHA reaction 50% inhibition concentration of the compounds of the general formula (I) were examined by using the PHA method by Cooperband, S. R., et al., (The Journal of Immunology, 109, (1), 154, (1972)). For sake of comparison, the effect of IRA obtained according to the Occhino et al., method (The Journal of Immunology, 110, (3), 685, (1973)) was also shown.

The test system of data set [1] is edemata grown on the mice legs (carrageenin). The data set can be described thus: Antiphlogistic action: carrageenin edema of hind legs in mice. The data set is classed as in vivo. Here is the method: 20 Mice were divided into four groups of five and the mice of two test groups were administered intra-abdominally with 7-hydroxycholesterol and 7-ketocholesterol, respectively, with the dose of 200 mg/kg (physiologically isotonic 2.0 weight % aqueous solution), and 1 hour later, 0.05 ml of 1% carrageenin was administered as a phlogogenic agent subcutaneously to the hind legs of these mice.
The sizes of the edemata grown on the mice legs with time after carrageenin administration were measured by a volume differential meter and compared with those of the control mice to which an isotonic sodium chloride solution was administered.
The test results are shown in the graph of FIG. 1 of the accompanying drawing. In the graph, percent of growth of edema is given on the vertical Y-axis and time (hour) after carrageenin administration is given on the horizontal X-axis. The numerals for the respective curves represent the respective specimens used in the test, that is, 1 represents isotonic sodium chloride solution, 2 cholesterol, 3 7-ketocholesterol, and 4 7-hydroxycholesterol.
(In general: The carrageenan paw model is a standard test of acute inflammation.)

A further data set has as its system rats. The data set can be described thus: Acute toxicity test in rats. The data set is classed as in vivo. Conditions: intra-abdominal, 500, 1,000, 1,500 and 2,000 mg/kg, 5-day observation. Here is the method:
An acute toxicity test of 7-hydroxycholesterol and 7-ketocholesterol was conducted on one group of rats (5 rats) with average body weight of about 200 gr. Each compound was suspended in a physiological solution of sodium chloride and made into a uniform suspension by a supersonic treatment, and then such suspension was administered intro-abdominally to each rat at the doses of 500 mg/kg, 1,000 mg/kg, 1,500 mg/kg and 2,000 mg/kg, respectively.

Values after ≈ are worked out from the molar mass of the structure shown.

As for `CC(C)CCC[C@@H](C)[C@H]1CC[C@H]2[C@@H]3C(O)C=C4C[C@@H](O)CC[C@]4(C)[C@H]3CC[C@]12C` (stereo partly shown) [7-hydroxycholesterol], the IC50 in the data set with PHA reaction stood at 5 µg/mL (≈ 12.4 µM). The growth of edema result in data set [1] (200 mg/kg intra-abdominally, five hours after carrageenin, control 82% in four hours) is listed as “about 40%”. In the data set with rats, the “death in acute toxicity test” value is recorded as “No death”.

Regarding `CC(C)CCC[C@@H](C)[C@H]1CC[C@H]2[C@@H]3C(=O)C=C4C[C@@H](O)CC[C@]4(C)[C@H]3CC[C@]12C` [7-ketocholesterol], in the data set on PHA reaction, the IC50 was found to be 8 µg/mL (≈ 20 µM). Also, the growth of edema result in data set [1] (200 mg/kg intra-abdominally, time not separately stated, control 82% in four hours) is listed as “about 50%”. Also, the “death in acute toxicity test” value with rats is on record as “No death”.

`CC(C)CCC[C@@H](C)[C@H]1CC[C@H]2[C@@H]3CC=C4C[C@@H](O)CC[C@]4(C)[C@H]3CC[C@]12C` [cholesterol] displayed a growth of edema in data set [1] (four hours after carrageenin, cholesterol group (reference data), control 82%) of 70%.
